Assay results as given in publication PMC3916416, “Recombinant Human Parathyroid Hormone Related Protein 1-34 and 1-84 and Their Roles in Osteoporosis Treatment” (PLoS ONE, 2014).

Experiments:
[1] = test system: primary bone marrow cells (BMC); assay: Primary bone marrow cell culture, cytochemical colony (CFU-f) staining; type: cell-based, rat; conditions: 10^-7 M on day 0, 18-day primary BMC cultures, compared with control cultures; triplicate determinations, three experiments
Method: Tibiae and femurs of 200-g male Wistar rats were removed under aseptic conditions, and bone marrow cells (BMC) were flushed out with Dulbecco's modified Eagle's minimal essential medium containing 10% fetal calf serum, 50 µg/ml ascorbic acid, 10 mM β-glycerophosphate, and 10^−8 M dexamethasone. Cells were dispersed by repeated pipetting, and a single-cell suspension was achieved by forcefully expelling the cells through a 22-gauge syringe needle. 10^6 total bone marrow cells were cultured in 36-cm^2 Petri dishes in 5 ml of the above-mentioned medium. All the dishes were assigned to three different groups. Each of the group treated with vehicle (Control), 10^−7 M hPTHrP1-34 or 10^−7 M hPTHrP1-84. The medium was changed every 4 days. The non-adherent cells containing hematopoietic elements were removed by pipetting gently when the medium was changed for the first time. Only monocytic cells remained. Cultures were maintained for 12–18 days. At the end of the culture period cells were stained cytochemically or RNA was extracted from these cells for RT-PCR as described below. The cells from 18-day primary BMC cultures were washed with PBS and fixed by the addition of cold ethanol. […] The numbers of colonies were counted macroscopically by hand. […]

[2] = test system: Cbfa-1, ALP, Col I, OCN mRNA in primary BMC; assay: Real-time RT-PCR of osteogenic genes in 14-day primary BMC cultures; type: cell-based, rat; conditions: 10^-7 M, ratio to GAPDH, compared with control cultures, three trials
Method: Tibiae and femurs of 200-g male Wistar rats were removed under aseptic conditions, and bone marrow cells (BMC) were flushed out with Dulbecco's modified Eagle's minimal essential medium containing 10% fetal calf serum, 50 µg/ml ascorbic acid, 10 mM β-glycerophosphate, and 10^−8 M dexamethasone. Cells were dispersed by repeated pipetting, and a single-cell suspension was achieved by forcefully expelling the cells through a 22-gauge syringe needle. 10^6 total bone marrow cells were cultured in 36-cm^2 Petri dishes in 5 ml of the above-mentioned medium. All the dishes were assigned to three different groups. Each of the group treated with vehicle (Control), 10^−7 M hPTHrP1-34 or 10^−7 M hPTHrP1-84. The medium was changed every 4 days. The non-adherent cells containing hematopoietic elements were removed by pipetting gently when the medium was changed for the first time. Only monocytic cells remained. Cultures were maintained for 12–18 days. At the end of the culture period cells were stained cytochemically or RNA was extracted from these cells for RT-PCR as described below.
RNA was isolated from 14-day cultured cells using Trizol reagent (Invitrogen) according to the manufacturer's protocol. Femurs were isolated and weighted. Homogenize tissue samples in 1 ml of TRIzol reagent per 50–100 mg of tissue using mortar and pestle with liquid nitrogen. […]

[3] = Serum calcium, phosphorus and ALP in OVX mice; type: in vivo, mouse; conditions: 10 nmol/kg s.c. daily for 4 weeks, versus vehicle-treated OVX mice, n = 6
Method: (§1) Twenty four female C57BL/6J mice, 8 weeks age, were assigned to four different groups, with six mice per group. All mice were anesthetized with chloral hydrate (0.4 ml/100 g body weight) and subjected to surgery on day 0. Sham surgery was performed on the Sham group (Sham) by identifying the bilateral ovaries and ovariectomy (OVX) was performed on the other groups by removing the bilateral ovaries. After surgery, all mice were maintained in a virus- and parasite-free barrier facility and exposed to a 12-h/12-h light/dark cycle under standard conditions in the Medical Experimental Animal Center of Nanjing Medical University for 9 weeks. HPTHrP1–34 was subcutaneously administered at a dose of 10 nmol/kg (40 µg/kg) body weight everyday for the last 4 weeks. HPTHrP1–84 was subcutaneously administered at a dose of 10 nmol/kg (100 µg/kg) body weight everyday for the last 4 weeks. Each of the mice received vehicle (vehicle-treated sham-operated mice and vehicle-treated OVX mice), hPTHrP1-34 (hPTHrP1-34-treated OVX mice) or hPTHrP1-84 (hPTHrP1-84-treated OVX mice). […]
Serum calcium, phosphorus and ALP were determined at 4 weeks after the administration of drugs by autoanalyzer (Beckman Synchron 67; Beckman Instruments).

[4] = test system: renal calcium transporters (calbindin-D28K, calbindin-D9K, NCX1, TRPV5); assay: Western blot of renal calcium transporters in OVX mice; type: in vivo, mouse; conditions: 10 nmol/kg s.c. daily for 4 weeks, relative to vehicle-treated sham-operated mice, n = 6
Method: as §1
Purified hPTHrP1-34 and 1-84 and proteins extracted from kidney were quantitated by a kit (Bio-Rad, Mississauga, Ontario, Canada). […] Bands were visualized using ECL chemiluminescence (Amersham) and quantitated by Scion Image Beta 4.02 (Scion Corporation, NIH).

[5] = test system: OVX mice (osteoporosis model); assay: Bone volume of vertebrae in OVX mice (radiography, micro-CT, histology); type: in vivo, mouse; conditions: 10 nmol/kg s.c. daily for 4 weeks
Method: (§2) Twenty four female C57BL/6J mice, 8 weeks age, were assigned to four different groups, with six mice per group. All mice were anesthetized with chloral hydrate (0.4 ml/100 g body weight) and subjected to surgery on day 0. Sham surgery was performed on the Sham group (Sham) by identifying the bilateral ovaries and ovariectomy (OVX) was performed on the other groups by removing the bilateral ovaries. After surgery, all mice were maintained in a virus- and parasite-free barrier facility and exposed to a 12-h/12-h light/dark cycle under standard conditions in the Medical Experimental Animal Center of Nanjing Medical University for 9 weeks. HPTHrP1–34 was subcutaneously administered at a dose of 10 nmol/kg (40 µg/kg) body weight everyday for the last 4 weeks. HPTHrP1–84 was subcutaneously administered at a dose of 10 nmol/kg (100 µg/kg) body weight everyday for the last 4 weeks. Each of the mice received vehicle (vehicle-treated sham-operated mice and vehicle-treated OVX mice), hPTHrP1-34 (hPTHrP1-34-treated OVX mice) or hPTHrP1-84 (hPTHrP1-84-treated OVX mice). At the end of experiments, all mice were sacrificed by exsanguination under chloral hydrate anesthesia and blood were collected for serum calcium, phosphorus and ALP analyses, bones and kidneys were then removed for the analyses described below.
Thoracic vertebrae were removed and dissected free of soft tissue. […]
Thoracic vertebrae were fixed overnight in 70% ethanol and analyzed by micro-CT with a SkyScan 1072 scanner and associated analysis software (SkyScan, Antwerp, Belgium) as described. […]
Total collagen was detected in paraffin sections using a modified method of Lopez-De Leon and Rojkind. […]
(§3) After HE staining or histochemical staining of sections from six mice of each genotype, images of fields were photographed with a Sony digital camera. All images were digitally recorded using a rectangular template, and recordings were processed and analyzed using Northern Eclipse image analysis software as described, [26], [28].

[6] = test system: OVX mice (osteoporosis model); assay: Osteoblastic bone formation parameters of vertebrae in OVX mice; type: in vivo, mouse; conditions: 10 nmol/kg s.c. daily for 4 weeks, compared to vehicle-treated sham-operated mice, n = 6
Method: as §2
Lumbar vertebrae or tibiae were removed and fixed in PLP fixative (2% paraformaldehyde containing 0.075 M lysine and 0.01 M sodium periodate solution) overnight at 4°C and processed histologically as described. Lumbar vertebrae were decalcified in ethylene-diamine tetraacetic acid (EDTA) glycerol solution for 5–7 days at 4°C. Decalcified samples were dehydrated and embedded in paraffin after which 5 µm sections were cut on a rotary microtome. […]
Double calcein labeling was performed by intraperitoneal injection of mice with 10 µg calcein/g body weight (C-0875, Sigma-Aldrich Corp., St. Louis, MO) at 10 and 3 day before death. […] Serial sections were cut, and the freshly cut surface of each section was viewed and imaged using fluorescence microscopy. The double calcein-labeled width of bone was measured using Northern Eclipse image analysis software version 6.0 (Empix Imaging, Inc., Mississauga, Canada), and the mineral apposition rate (MAR) was calculated as the interlabel width/labeling period.
as §3

[7] = test system: Cbfa1, ALP, Col I, OCN, RANKL, OPG mRNA in long bone; assay: Real-time RT-PCR of long bone extracts of OVX mice; type: in vivo, mouse; conditions: 10 nmol/kg s.c. daily for 4 weeks, n = 6
Method: as §2
RNA was isolated from 14-day cultured cells using Trizol reagent (Invitrogen) according to the manufacturer's protocol. Femurs were isolated and weighted. Homogenize tissue samples in 1 ml of TRIzol reagent per 50–100 mg of tissue using mortar and pestle with liquid nitrogen. After homogenization, remove insoluble material from the homogenate by centrifuging at 12,000 RPM for 10 min at 4°C. Transfer the top layer solution into a new tube. RNA of this solution was precipitated with isopropanol, washed with 75% ethanol and dissolved with DEPC water. Reverse transcription reactions were performed using the SuperScript First-Strand Synthesis System (Invitrogen) as previously described. […]

[8] = test system: OVX mice (osteoporosis model); assay: Osteoclastic bone resorption (TRAP staining) in OVX mice; type: in vivo, mouse; conditions: 10 nmol/kg s.c. daily for 4 weeks, vertebrae, compared with vehicle-treated OVX mice, n = 6
Method: as §1, §3

[9] = Serum PTHrP analyses (ELISA) after subcutaneous injection; type: in vivo, mouse; conditions: OVX mice, 10 nmol/kg s.c.
Method: The OVX mice were injected with vehicle or 10 nmol/kg hPTHrP1-34 or 10 nmol/kg hPTHrP1-84 subcutaneously. Subsequently, blood samples were drawn at 15 and 30 minutes, 1, 2, 4 and 6 hours after the injections. Serum concentrations of hPTHrP1-34 or hPTHrP1-84 were measured by enzyme linked immunosorbent assay (ELISA) that used Phoenix Pharmaceuticals PTHrP(1-34)- EIA Kit (Phoenix Pharmaceuticals, USA). Procedures were performed according to the instructions of the kit.

[10] = test system: placental calcium transport; conditions: cited from earlier work
Source text: It supports the concept that the mid-molecule region of PTHrP is functionally important in placental calcium transport. […] However, it is unclear whether there are some differences between PTHrP1-34 and 1-84 on renal calcium reabsorption and on bone formation. To answer this que ...

[11] = vertebrae, micro-CT and histology, compared to vehicle-treated OVX mice (hPTHrP1-84 also to hPTHrP1-34-treated), n = 6
[12] = compared to vehicle-treated sham-operated mice

With “hPTHrP1-34: recombinant human parathyroid hormone related protein 1-34, expressed as GST fusion in E. coli BL21 and cleaved by thrombin” as the substance, how does the “colony formation and osteogenic cell differentiation and mineralization” value [1] read?
Its value is “significant increase”.

And the “gene expression levels of Cbfa-1, ALP, type I collagen (Col I) and osteocalcin (OCN)” value [2]?
Its value is “upregulated significantly”.

And the “Serum mineral ion and ALP levels” value [3]?
Its value is “no significant differences”.

What about the “protein levels of calbindin-D28K, calbindin-D9K, NCX1 and TRPV5 in the kidney” value [4] of the same substance?
Its value is “down-regulated”.

What about the radiolucency in vertebrae ([5]; radiography, compared to vehicle-treated sham-operated mice) of the same substance?
The radiolucency in vertebrae was “increased”.

And the cortical thickness [5, 11]?
The cortical thickness was “not altered significantly”.

And the trabecular bone volume [5, 11]?
The trabecular bone volume was “not altered significantly”.

What about the ALP positive area [6] of the same substance?
Its ALP positive area is “increased”.

And the “MAR (mineral apposition rate)” value [6]?
Its value is “decreased”.

What about the osteoblast number [6] of the same substance?
Its osteoblast number is “increased”.

What about the osteoid volume [6] of the same substance?
Its osteoid volume is “not altered significantly”.

What about the “ratios of RANKL/OPG mRNA levels” value ([7]; among vehicle-treated, hPTHrP1-34-treated and hPTHrP 1-84-treated OVX mice) of the same substance?
The value was “no significant differences”.

And the “osteoblastic gene expression levels of Cbfa1, ALP” value [7, 12]?
Its value is “slightly up-regulated”.

What about the “ratios of RANKL/OPG mRNA levels” value [7, 12] of the same substance?
The value was “increased significantly”.

And the “TRAP positive osteoclast number” value [8]?
The value was “did not further increase”.

And the “TRAP positive osteoclast surface” value [8]?
Its value is “did not further increase”.

What about the “circulating t1/2” value ([9]; ELISA, read from the figure (Fig. 6e), approximate) of the same substance?
The value was “approximately 45 mins”.

What about the “time at which plasma PTHrP levels declined to baseline levels” value ([9]; ELISA, sampling 15 and 30 min, 1, 2, 4, 6 h, n = 6) of the same substance?
The value was 2 h.

And the “plasma PTHrP levels at 15 min after the administration” value ([9]; single injection, PTHrP(1-34) EIA kit (ELISA), mean ± SEM, n = 6)?
The value was 9 ± 0.7 pM.

For “synthetic PTHrP1-34: synthetic PTHrP1-34 of the literature study on placental calcium transfer (ref 18)”, which placental calcium transfer [10] is on record?
The placental calcium transfer was “no such effect”.
